One experiment concerns the target T1, Sgk2 (Homo sapiens, UniProt Q9HBY8).
T1 sequence (Q9HBY8 1-367): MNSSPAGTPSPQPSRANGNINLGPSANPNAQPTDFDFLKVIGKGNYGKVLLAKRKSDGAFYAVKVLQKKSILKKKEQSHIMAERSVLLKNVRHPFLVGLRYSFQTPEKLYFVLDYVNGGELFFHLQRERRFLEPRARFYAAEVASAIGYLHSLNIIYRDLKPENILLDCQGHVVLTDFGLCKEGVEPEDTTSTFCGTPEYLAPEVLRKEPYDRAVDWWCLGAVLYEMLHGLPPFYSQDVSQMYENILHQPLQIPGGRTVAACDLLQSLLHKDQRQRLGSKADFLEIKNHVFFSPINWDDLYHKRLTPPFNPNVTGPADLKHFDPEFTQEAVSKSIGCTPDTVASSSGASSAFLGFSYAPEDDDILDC
The experiment can be described thus: Enzyme based assay for SGK2 (biotinylated Akt Substrates-2 peptide, Eu3+ Cryptate/XL665 detection). The format is biochemical. The method, then: (§1) 1. Enzyme Based Assays for SGK1, SGK2, SGK3, and Akt1
(§2) The kinase enzymatic reaction is carried out with a biotinylated Akt Substrates-2 peptide substrate. The phosphorylated substrate is then detected using a specific anti-phospho peptide antibody which is coupled with Eu^3+ Cryptate and XL665 conjugated with streptavidin.
(§3) Exemplary Assay Conditions
(§4) • Enzyme: ˜0.1 nM • Substrate: 0.2 μM • ATP: 50 μM and 1 mM • Mg^2+: 10 mM • Reaction time: 60 min with 50 μM ATP and 30 min with 1 mM ATP • SA-XL to Biotin: 1:10
(§5) Detailed Steps • 1. prepare the enzyme and substrate solution with the buffer from Cisbio • 2. add the enzyme and substrate solution to the diluted compound plate • 3. transfer 5 μL of compound, enzyme, and substrate mixture to an 384-well assay plate • 4. add 5 μL ATP (with Mg^2+) solution to initiate the reaction • 5. after certain time, add 10 μL of stop solution containing SA-XL and specific antibody • 6. read the plate after 2 h incubation at rt • 7. process the data using prizm software (Exemplary results are shown in FIG. 1.) 2. PK Studies Protocol

The target in a further experiment is T2, Sgk1 (Homo sapiens, UniProt O00141).
T2 sequence (O00141 1-431): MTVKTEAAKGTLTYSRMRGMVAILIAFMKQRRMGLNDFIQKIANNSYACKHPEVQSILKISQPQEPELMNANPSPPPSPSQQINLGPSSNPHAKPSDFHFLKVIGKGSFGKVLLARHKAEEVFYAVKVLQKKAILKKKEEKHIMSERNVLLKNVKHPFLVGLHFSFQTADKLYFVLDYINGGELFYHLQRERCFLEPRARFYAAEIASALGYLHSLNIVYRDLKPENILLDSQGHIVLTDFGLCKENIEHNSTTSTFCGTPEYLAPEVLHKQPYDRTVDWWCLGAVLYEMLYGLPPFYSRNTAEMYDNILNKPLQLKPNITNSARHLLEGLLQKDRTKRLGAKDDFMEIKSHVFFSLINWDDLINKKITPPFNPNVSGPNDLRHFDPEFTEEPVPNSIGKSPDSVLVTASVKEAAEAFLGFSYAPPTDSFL
The experiment can be described thus: Enzyme based assay for SGK1 (biotinylated Akt Substrates-2 peptide, Eu3+ Cryptate/XL665 detection). The format is biochemical. As to the method:
as §1, §2, §3, §4, §5

[1] abbreviates: 50 μM ATP, read-out: Sgk2 (50 μM ATP).
The mark [2] stands for this setting: 1 mM ATP, read-out: Sgk2 (1 mM ATP).
Where [3] appears, read: 50 μM ATP, read-out: Sgk1 (50 μM ATP).
[4] abbreviates: 1 mM ATP, read-out: Sgk1 (1 mM ATP).

Like-named read-outs stand apart in the source and are kept apart here.

With `COc1ccc(Cl)c(S(=O)(=O)Nc2ccc(-c3cc(OCC4CNCCO4)c4cn[nH]c4c3)cc2)c1` (centres unmarked), the IC50 on Sgk2 (setting [1]) amounted to 0.0018 µM; at Sgk2 (setting [2]) it was 0.0252 µM; at Sgk1 (setting [3]) it was 0.0018 µM; on Sgk1 (setting [4]), 0.0319 µM.

Turning to `COc1ccc(F)c(S(=O)(=O)Nc2ccc(-c3cc(OCC4CNCCO4)c4c(N)n[nH]c4c3)cc2)c1` (centres unmarked), the IC50 on Sgk2 (setting [1]) was 0.002 µM; at Sgk2 (setting [2]), 0.0038 µM; on Sgk1 (setting [3]), 0.0023 µM; at Sgk1 (setting [4]) it was 0.0039 µM.

For the compound `COc1ccc(F)c(S(=O)(=O)Nc2ccc(-c3cc4[nH]ncc4c(NCC4CNCCO4)n3)cc2)c1` (centres unmarked), the IC50 is 0.0053 µM at Sgk2 (setting [1]), 0.0035 µM on Sgk2 (setting [2]), 0.0081 µM on Sgk1 (setting [3]) and 0.0042 µM at Sgk1 (setting [4]).

Regarding `COc1ccc(F)c(S(=O)(=O)Nc2ccc(-c3cc(OC)c4c(N)n[nH]c4n3)cc2)c1`, the IC50 is 0.003 µM on Sgk2 (setting [1]), 0.0357 µM on Sgk2 (setting [2]), 0.0171 µM at Sgk1 (setting [3]) and 0.112 µM on Sgk1 (setting [4]).

Regarding `COc1ccc(F)c(S(=O)(=O)Nc2ccc(-c3cc4[nH]ncc4c(OC)n3)cc2)c1`, the IC50 on Sgk2 (setting [1]) is 0.0385 µM; on Sgk2 (setting [2]) it was 0.0327 µM; at Sgk1 (setting [3]), 0.0706 µM.

Regarding `COc1ccc(F)c(S(=O)(=O)Nc2ccc(-c3cc(O[C@H]4CCOC4)c4c(N)n[nH]c4c3)cc2)c1`, the IC50 came to 0.0103 µM on Sgk2 (setting [1]), 0.0164 µM on Sgk2 (setting [2]), 0.0052 µM on Sgk1 (setting [3]) and 0.0029 µM on Sgk1 (setting [4]).

On to `COc1ccc(F)c(S(=O)(=O)Nc2ccc(-c3cc(O[C@@H]4CCOC4)c4c(N)n[nH]c4c3)cc2)c1`, for which the IC50 at Sgk2 (setting [1]) stood at 0.0046 µM; on Sgk2 (setting [2]), 0.0093 µM; on Sgk1 (setting [3]) it was 0.0055 µM; on Sgk1 (setting [4]), 0.0015 µM.

As to `COc1ccc(F)c(S(=O)(=O)Nc2ccc(-c3cc(OC4COC4)c4c(N)n[nH]c4c3)cc2)c1`, the IC50 at Sgk2 (setting [1]) is 0.0044 µM; on Sgk2 (setting [2]) it was 0.0065 µM; on Sgk1 (setting [3]) it was 0.0086 µM; on Sgk1 (setting [4]), 0.0038 µM.

With `COc1ccc(F)c(S(=O)(=O)Nc2ccc(-c3cc(OCC(C)(C)O)c4c(N)n[nH]c4c3)cc2)c1`, the values for the IC50 on Sgk2 (setting [1]), on Sgk2 (setting [2]) and on Sgk1 (setting [3]) were 0.0383 µM, 0.0393 µM and 0.0361 µM, respectively.

Turning to `COc1ccc(F)c(S(=O)(=O)Nc2ccc(-c3cc(C)c4c(N)n[nH]c4c3)cc2)c1`, the IC50 worked out at 0.0084 µM on Sgk2 (setting [1]), 0.0715 µM at Sgk2 (setting [2]), 0.0215 µM on Sgk1 (setting [3]) and 0.0499 µM at Sgk1 (setting [4]).

For `Cc1n[nH]c2nc(-c3ccc(NS(=O)(=O)c4cc(Cl)ccc4F)cc3)ccc12`, the results for the IC50 on Sgk2 (setting [1]) and at Sgk1 (setting [3]) were 0.0059 µM and 0.0121 µM, respectively.

As for `COc1ccc(Cl)c(NS(=O)(=O)c2ccc(-c3ccc4c(N)n[nH]c4n3)cc2)c1`, the IC50 on Sgk2 (setting [1]) is 0.109 µM; at Sgk1 (setting [3]), more than 2 µM.

Regarding `COc1ccc(F)c(S(=O)(=O)Nc2ccc(-c3ccc4cn[nH]c4c3)nc2)c1`, the IC50 on Sgk2 (setting [1]) is 0.0314 µM; on Sgk2 (setting [2]) it was 0.267 µM; at Sgk1 (setting [3]) it was 0.0925 µM; on Sgk1 (setting [4]), 0.144 µM.

For `COc1ccc(F)c(S(=O)(=O)Nc2ccc(-c3cnc4c(N)n[nH]c4c3)nc2)c1`, the IC50 at Sgk2 (setting [1]) was 0.0278 µM; on Sgk2 (setting [2]), 0.134 µM; at Sgk1 (setting [3]), 0.141 µM; at Sgk1 (setting [4]), 0.208 µM.

For `COc1ccc(F)c(S(=O)(=O)Nc2cnc(-c3ccc4c(N)n[nH]c4c3)nc2)c1`, the IC50 turned out to be 0.0037 µM on Sgk2 (setting [1]), 0.0075 µM on Sgk2 (setting [2]), 0.0141 µM on Sgk1 (setting [3]) and 0.0622 µM at Sgk1 (setting [4]).

For `COc1ccc(F)c(S(=O)(=O)Nc2cnc(-c3cc(OC)c4c(N)n[nH]c4c3)nc2)c1`, the IC50 on Sgk2 (setting [1]) worked out at 0.0054 µM; on Sgk2 (setting [2]) it was 0.004 µM; at Sgk1 (setting [3]), 0.0179 µM; at Sgk1 (setting [4]), 0.0273 µM.

As to `Nc1n[nH]c2cc(-c3ccc(NS(=O)(=O)c4cccc(Cl)c4Cl)cn3)ccc12`, the IC50 came out at 0.0171 µM on Sgk2 (setting [1]), 0.0134 µM at Sgk2 (setting [2]), 0.15 µM at Sgk1 (setting [3]) and 0.542 µM at Sgk1 (setting [4]).

The values are drawn from patent US11236083B2, “Compounds and pharmaceutical compositions for modulating SGK activity, and methods thereof” (NEW ERA PHARMA, INC., priority 2016, dated 2022).
